Where “and” joins values, the source holds several entries; their conditions need not be identical. Identical values can stand only once. Entries after “also recorded” stand apart in the source; their conditions may differ. Like-named read-outs stand apart in the source and are kept apart here.
How the values were obtained:
anti-dsDNA antibodies = assay: SLE (lupus) model: anti-dsDNA antibodies in serum by ELISA; assay type: in vivo, MRL/MpJ-Faslpr mice
Procedure: (§1) Female MRL/MpJ-Faslpr mice (The Jackson Laboratory) were used to assess the efficacy of Compound A in treating lupus. Starting when animals were 10 weeks of age, protein concentration in urine was measured using urine dipsticks.
(§2) At the start of the study, each group in the study had two animals that were 9 weeks old, and all others were 10 weeks old. Dosing of all animals with the test compounds began when the older animals were 11 weeks old. […] […] Dosing was at a consistent time each dosing day throughout the study.
(§3) Compound A may be formulated as illustrated in Experimental Method A (see Table 2E.). […] A stock solution of Compound A in DMSO (stock solution concentration of Compound A of 40 mg/mL) was prepared and aliquots for weekly preparations were frozen at −20° C. On each preparation day, a stock solution aliquot was thawed and diluted with other vehicle components to the desired concentration. Formulated Compound A and vehicle were at room temperature for dosing.
(§4) The study began when the older animals were 11 weeks old, and concluded when the older animals were 19 weeks old. Body weight was recorded once a week, with the exception of two weight measurements taken the first week of the study (when the older animals were 11 weeks old). Proteinuria was measured in the urine of animals with urine dipsticks once a week, starting when the older animals were 10 weeks old. […] Blood samples were taken retro-orbitally at the start of the study to establish a baseline (15 animals, 3 per group), and when the older animals were 16 weeks (all animals) and when animals were 19 weeks (all animals) at the conclusion of the study. Blood urea nitrogen (BUN) was measured in all animals at study termination in blood samples. After blood collection, animals were euthanized, perfused with PBS, and the left kidneys were collected and weighed and fixed in 10% buffered formalin. Left kidneys were then processed to a formalin-fixed, paraffin-embedded (FFPE) block, and histology was analyzed in Periodic Acid-Schiff-stained sections (1 section per slide), using the criteria described in Alperovich et al., Lupus, 16:18-24 (2007). Right kidneys were weighed and snap-frozen at −80° C. Spleens were also collected and weighed. SLE in animals treated with a BET inhibitor and vehicle.
Anti-dsDNA antibody test measures the amount of antibody to double-stranded deoxyribonucleic acid (anti-dsDNA) that may be present in the blood. Anti-dsDNA antibodies are highly specific markers of SLE as these antibodies are not thought to be present in other kinds of autoimmune disorder.

renal fibrosis (UUO) = assay: Unilateral Urethral Obstruction (UUO) model of renal fibrosis: clinical histopathology scores; assay type: in vivo, rats; parameters: key to Glomerulosclerosis clinical score / Interstitial nephritis clinical score / Collagen fiber deposition clinical score / Nephropathy clinical score: 0=no more or absence; 1=low; 2=moderate; 3=high; 4=severe
Procedure: Starting on Day 0, animals in group 2 were administered daily doses of the vehicle for 14 days. Starting on Day 0, animals in group 3 were administered daily doses of Compound A (10 mg/kg) for 14 days. A design of the UUO study is depicted in FIG. 24.
Blind clinical nephropathy scores were conducted for all animals in the study. Glomerulosclerosis, interstitial nephritis, collagen fiber deposition, and nephropathy were each assessed for all experimental rats, and a total clinical score was determined for each rat. The scoring system represented the degree or percentage of lesions in the whole kidney. Clinical score assessments were performed on Day 14.

lupus = assay: SLE (lupus) model: kidney and spleen weight; assay type: in vivo, MRL/MpJ-Faslpr mice; conditions: Week 19
Procedure: as §1, §2, §3, §4

[1] = UUO study: plasma concentration of Compound A; assay type: in vivo, rats; conditions: for concentration at 4 h: rat, plasma, oral, 10 mg/kg
[2] = UUO rats, individual animals 1-8

Cn1cc(-c2ccccc2)c(-c2cn(C)c(=O)c3[nH]c(-c4cnn(C(F)(F)F)c4)cc23)cc1=O [Compound A, 6-methyl-4-(1-methyl-2-oxo-5-phenyl-1,2-dihydropyridin-4-yl)-2-(1-(trifluoromethyl)-1H-pyrazol-4-yl)-1,6-dihydro-7H-pyrrolo[2,3-c]pyridin-7-one]
Anti-dsDNA Antibodies in serum, mean (anti-dsDNA antibodies; Compound A 1 mg/kg PO QD, Week 16): 240 units/mL | Anti-dsDNA Antibodies in serum, mean (anti-dsDNA antibodies; Compound A 1 mg/kg PO QD, Week 19): 149 units/mL | Anti-dsDNA Antibodies in serum, mean (anti-dsDNA antibodies; Compound A 3 mg/kg PO QD, Week 16): 112 units/mL | Anti-dsDNA Antibodies in serum, mean (anti-dsDNA antibodies; Compound A 3 mg/kg PO QD, Week 19): 94 units/mL | Anti-dsDNA Antibodies in serum, mean (anti-dsDNA antibodies; Compound A 10 mg/kg PO QD, Week 16): 47 units/mL | Anti-dsDNA Antibodies in serum, mean (anti-dsDNA antibodies; Compound A 10 mg/kg PO QD, Week 19): 57 units/mL | Anti-dsDNA antibodies in serum (anti-dsDNA antibodies; Week 16, 1 mg/mL): did not appear to be effective | Anti-dsDNA antibodies in serum (anti-dsDNA antibodies; Week 16 and Week 19, 3 mg/mL): positive effect in reducing levels | Anti-dsDNA antibodies in serum versus Vehicle group (anti-dsDNA antibodies; Week 16 and Week 19, Compound A (10 mg/mL) and Cyclophosphamide): effective in reducing levels to well below that seen with the Vehicle administered group | Anti-dsDNA antibodies in serum (anti-dsDNA antibodies; Week 19, 1 mg/mL): effective in reducing the levels | Total histology score (FIG. 26D) (renal fibrosis (UUO); UUO + Compound A (10 mg/kg) relative to sham treated animals): marked decrease in total histology score | Collagen fiber deposition clinical score (renal fibrosis (UUO); [2]): 1 (4×) and 2 (3×) and 3 | Glomerulosclerosis clinical score (renal fibrosis (UUO); [2]): 0 | Interstitial nephritis clinical score (renal fibrosis (UUO); [2]): 2 (4×) and 3 (4×) | Nephropathy clinical score (renal fibrosis (UUO); [2]): 1 and 2 (7×) | Total score (renal fibrosis (UUO); [2]): 4 and 7 (3×) and 5 (3×) and 8 | Clinical histopathology scores / histological indicators of fibrosis relative to UUO + vehicle (renal fibrosis (UUO); UUO rats, 10 mg/kg PO QD, 10 mg/kg): reduced levels of interstitial nephritis, collagen fiber deposition, and nephropathy, as well as total clinical scores; also recorded: reduced the severity of all histological indicators of fibrosis; also recorded: ameliorates clinical symptoms associated with UUO | Mean Kidney Weight (lupus; Compound A 1 mg/kg PO QD): 245 mg | Mean Spleen Weight (lupus; Compound A 1 mg/kg PO QD): 241 mg | Mean Kidney Weight (lupus; Compound A 3 mg/kg PO QD): 245 mg | Mean Spleen Weight (lupus; Compound A 3 mg/kg PO QD): 361 mg | Mean Kidney Weight (lupus; Compound A 10 mg/kg PO QD): 225 mg | Mean Spleen Weight (lupus; Compound A 10 mg/kg PO QD): 170 mg | Kidney weights relative to controls (lupus; Compound A (10 mg/kg) and cyclophosphamide groups): slightly decreased kidney weights | Spleen weights relative to vehicle controls (lupus; Compound A (all tested doses) and cyclophosphamide): decreased spleen weights | Concentration ([1]; UUO + Compound A, male SD rats, time 4 h, individual Test Subjects 1-8): 220 ng/mL and 318 ng/mL and 133 ng/mL and 215 ng/mL and 132 ng/mL and 194 ng/mL and 198 ng/mL and 195 ng/mL | concentration at 4 h ([1]; male, Sprague-Dawley, UUO + Compound A, male SD rats, time 4 h, mean of 8 test subjects, read-out: Concentration, Mean): 201 ng/mL | concentration at 4 h ([1]; po, four hours after final treatment, read-out: Mean plasma concentration): 201 ng/mL

Reference: patent US20260217701A1, “SELECTIVE BET INHIBITORS AND USES THEREOF” (Tay Therapeutics Limited, priority 2022, published 2026)
